Measured values published in patent US7745571B2, “Peptide inhibitors of IASPP” (Ludwig Institute for Cancer Research, priority 2002, dated 2010).

Key:
[1] = test system: p53 transactivation in U2SO; assay: p53 transactivation in tumour cell line after UV damage of DNA in presence of peptide (FIG. 5); assay type: cell-based, human; settings: U2SO cells after UV damage of DNA
Text: FIG. 5 illustrates the stimulation of p53 transactivation in a human tumour cell line U2SO after UV damage of DNA in the presence of peptide DGPEETD (SEQ ID NO: 2);

[2] = test system: Bax promoter; assay: Stimulation of the Bax promoter by p53 after incubation with peptides (FIG. 4); assay type: cell-based; settings: after incubation with peptide
Method: FIG. 4 illustrates the stimulation of the Bax promoter by p53 after incubation with various peptides, in particular DGPEETD (SEQ ID NO: 2);
For transcriptional assay, 5×10^5 Saos-2 cells were plated 24 hr prior to transfection in 6 cm dishes. Various combinations of plasmid DNA were transfected using the following amounts. All transfection assays contain 1 μg of reporter plasmid. 50 ng of wild type human p53, 100 ng of plasmid expressing C. elegans p53, 4 μg of ASPP2, or 8 μg of ASPP1, 5 μg of human iASPP or 7.5 μg of Ce-iASPP were used as indicated. After transfection, the cells were lysed in Reporter Lysis Buffer (Promega, Wis., USA) 16-24 hr post-wash and assayed using the Luciferase Assay kit (Promega, Wis., USA). The fold activation of a particular reporter was determined by the activity of the transfected plasmid above the activity of vector alone. The fold increase of p53 transactivation activity by ASPP was obtained by the activity p53 in combination with ASPP divided by the activity of p53 alone on the promoters used in each assay.

Substance: DGPEETD (p53 inhibitor peptide)
- stimulation of p53 transactivation [1]: stimulation
- stimulation of the Bax promoter by p53 [2]: stimulation
